Test results from PMC7235904, “Is Blood a Good Indicator for Detecting Antimicrobials in Meat? Evidence for the Development of In Vivo Surveillance Methods” (Antibiotics, 2020).
Like-named read-outs stand apart in the source and are kept apart here. Marks after values point to notes of the source that are not given here.

Experiments:
[1] = Antimicrobial residue concentration and depletion in muscle of treated pigs within the withdrawal period (LC-MS/MS or HPLC-FLD); format: in vivo; settings: for half-life: both sexes, T1/2=Ln(2)/λz, read-out: T1/2 half-life of elimination (MUSCLE) (converted); for half-life / concentration at 2 day of withdrawal period / concentration at 3 day of withdrawal period / concentration at 4 day of withdrawal period / concentration at 7 day of withdrawal period / concentration at 15 day of withdrawal period: intramuscular; for concentration at 2 day of withdrawal period: withdrawal period Day 2, pig; for concentration at 3 day of withdrawal period: withdrawal period Day 3, pig; for Maximum concentration value in Muscle / Minimum concentration value in Muscle: over the sample bank of treated piglets; for Time until levels reached the detection limit (DL) in muscle: DL 10 µg/kg; for Slope (MUSCLE): regression of concentration over the withdrawal period, deep intramuscular treatment; for concentration at 4 day of withdrawal period: withdrawal period Day 4, pig; for concentration at 7 day of withdrawal period: withdrawal period Day 7, pig; for concentration at 15 day of withdrawal period: withdrawal period Day 15, pig
Excerpt: To obtain samples containing antimicrobial compounds administered in vivo, 93 piglets (62 female, 31 male) with an average weight of 43.00 ± 12.79 kg were provided at treatment onset. These piglets were untreated animals that remained on the premises of the Faculty of Veterinary Sciences at the University of Zaragoza (Zaragoza, Spain) 40 days before administration of the compounds. Both during the acclimatization and withdrawal periods, animals were fed ad libitum with a special mixed feed that was free of antibiotics ([…], Spain), and water was provided from a separated, controlled water circuit. Piglets were raised in separate pens depending on the antibiotic administrated. After administration, animals were slaughtered at preset intervals within the withdrawal period in order to obtain samples containing different antimicrobial concentrations above and below the MRLs for muscle. Figure S1 indicates the slaughter days and the withdrawal periods set by the manufacturer for each antimicrobial compound administered. Between one and three piglets were slaughtered on the same day post-administration. The day of slaughter was calculated from the first day after the last antimicrobial treatment dose. […] Apart from samples containing antimicrobial compounds administered in vivo, and as a part of the sample bank, 15 of the 93 piglets were slaughtered after the acclimatization period and before treatment onset. Animals were stunned and slaughtered following the guidelines established by European Council Regulation (EC) No. 1099/2009 [39] regarding the protection of animals at the time of slaughter or killing. A penetrative captive bolt gun was used to stun the pigs, positioning it firmly against the skin, in the middle of the forehead, 2 cm above the line of the eyes, aiming towards the tail. This was followed by complete exsanguination carried out by incision in the jugular furrow at the base of the neck to sever all the major blood vessels arising from the heart. The samples obtained from them were used as blank samples for analysis. […] Samples were immediately frozen at -20 °C until analysis. For HPLC-FLD analyses, matrix solid phase dispersion (MSPD) was used. A total of 1.00 ± 0.01 g of tissue was weighed. Internal quality control samples were spiked at this point. […] It was introduced into a 25 mL reservoir and compacted. Clean-up was made with 8 mL of hexane, and quinolones were eluted with 15 mL acetonitrile/methanol (1:1) acidified with acetic acid 1%. […] The extraction procedure for LC-MS/MS determination was based on Chico et al.. […] All samples were spiked with IS at this point, and calibrants and internal quality control samples were prepared by spiking the corresponding amount of standard working solution. A total of 200 μL of 0.1 M EDTA was added, followed by 10 mL of 70% methanol, and samples were vortexed for 30 s, swung for 15 min, and finally centrifuged at 4500 rcf for 10 min at a temperature below 10 °C (Heraeus Multifuge X3 FR, Heraeus, Hanau, Germany). Then, 500 μL of supernatant was collected and diluted by adding 1500 μL of water. Extracts were filtered through 0.2 μm pore filters directly into LC-MS/MS vials. […] Mobile phase consisted of eluent A: phosphoric acid with trimethylamine buffer (pH = 3), and eluent B: acetonitrile, in isocratic mode (21:79) with a flow rate of 1 mL/min. Injected volume was 50 μL. […] The same mobile phase and gradient conditions as in SCIEX instruments were applied. Injected volume was 10 μL. Two ESI+ MRM transitions were monitored for each compound (Table S5). […] Results were represented as the mean ± standard deviation using the PRISM program (GraphPad Software, Inc., San Diego, USA). The rates of elimination (λz) of antibiotics from muscle and blood were determined by regression analysis. […]

[2] = Antimicrobial residue concentration and depletion in blood (serum) of treated pigs within the withdrawal period (LC-MS/MS); format: in vivo; settings: for half-life: both sexes, intramuscular, T1/2=Ln(2)/λz, read-out: T1/2 half-life of elimination (BLOOD) (converted); for half-life / Slope (BLOOD): pig blood serum; for Maximum concentration value in Blood / Minimum concentration value in Blood: over the sample bank of treated piglets; for Slope (BLOOD): regression of concentration over the withdrawal period, deep intramuscular treatment; for Time until levels reached the detection limit (DL) in blood: DL 10 µg/kg
Excerpt: To obtain samples containing antimicrobial compounds administered in vivo, 93 piglets (62 female, 31 male) with an average weight of 43.00 ± 12.79 kg were provided at treatment onset. These piglets were untreated animals that remained on the premises of the Faculty of Veterinary Sciences at the University of Zaragoza (Zaragoza, Spain) 40 days before administration of the compounds. Both during the acclimatization and withdrawal periods, animals were fed ad libitum with a special mixed feed that was free of antibiotics ([…], Spain), and water was provided from a separated, controlled water circuit. Piglets were raised in separate pens depending on the antibiotic administrated. After administration, animals were slaughtered at preset intervals within the withdrawal period in order to obtain samples containing different antimicrobial concentrations above and below the MRLs for muscle. Figure S1 indicates the slaughter days and the withdrawal periods set by the manufacturer for each antimicrobial compound administered. Between one and three piglets were slaughtered on the same day post-administration. The day of slaughter was calculated from the first day after the last antimicrobial treatment dose. […] Apart from samples containing antimicrobial compounds administered in vivo, and as a part of the sample bank, 15 of the 93 piglets were slaughtered after the acclimatization period and before treatment onset. Animals were stunned and slaughtered following the guidelines established by European Council Regulation (EC) No. 1099/2009 [39] regarding the protection of animals at the time of slaughter or killing. A penetrative captive bolt gun was used to stun the pigs, positioning it firmly against the skin, in the middle of the forehead, 2 cm above the line of the eyes, aiming towards the tail. This was followed by complete exsanguination carried out by incision in the jugular furrow at the base of the neck to sever all the major blood vessels arising from the heart. The samples obtained from them were used as blank samples for analysis. Blood was collected not only from slaughtered animals, but also from living animals on each day of slaughter. […] For quinolones in blood serum samples, a LC-MS/MS method was set up using a SCIEX Exion LC coupled to TripleQuad 6500+ triple quadrupole detector equipped with an Acquity Ultra Performance Liquid Chromatography Ethylene Bridged Hybrid (UPLC BEH) C18 (1.7 μm, 2.1 × 100 mm) column. Mobile phase consisted of eluent A: 0.1% formic acid in water, and eluent B: 0.1% formic acid in acetonitrile at a flow rate of 0.4 mL/min. […] Injected volume was 5 μL. Analytes were detected using positive electrospray ionization (ESI+) in multiple reaction monitoring (MRM) mode, and two transitions were monitored for each compound of interest (Table S4). […] The same mobile phase and gradient conditions as in SCIEX instruments were applied. […] Two ESI+ MRM transitions were monitored for each compound (Table S5). […] Results were represented as the mean ± standard deviation using the PRISM program (GraphPad Software, Inc., San Diego, USA). The rates of elimination (λz) of antibiotics from muscle and blood were determined by regression analysis. The corresponding half-lives of elimination were calculated according to the following equation: Half-life of elimination.

[3] = cited from earlier work; for Suppression Period (withdrawal period set by the manufacturer): commercial product, deep intramuscular, ref manufacturer; for MRLs: muscle, ref Regulation (EEC) No. 2377/90
[4] = design: method as in earlier work; settings: cited from earlier work
[5] = forequarter muscle, read-out: Concentration in Forequarters
[6] = hindquarter muscle, read-out: Concentration in Hindquarters
[7] = loin muscle, read-out: Concentration in Loins

half-life ([1]; pig muscle) | concentration at 2 day of withdrawal period [1, 5] | concentration at 2 day of withdrawal period [1, 6] | concentration at 2 day of withdrawal period [1, 7] | Maximum concentration value in Muscle [1] | Minimum concentration value in Muscle [1] | Time until levels reached the detection limit (DL) in muscle ([1]; pig muscle) | Slope (MUSCLE) ([1]; pig muscle) | half-life [2] | Maximum concentration value in Blood [2] | Minimum concentration value in Blood [2] | Slope (BLOOD) [2] | Time until levels reached the detection limit (DL) in blood ([2]; pig blood) | SMILES | Suppression Period (withdrawal period set by the manufacturer) [3] | MRLs [3] | further results
0.92 days | 374 ± 4.73 ng/g | 387 ± 8.5 ng/g | 383 ± 2 ng/g | 1858.00 ± 156.37 µg/kg | 18.00 ± 2.65 µg/kg | 7 days after inoculation | −0.3289 ± 0.01929 ^a | 1.9 days | 448.50 ± 2.12 µg/kg | 21.67 ± 1.15 µg/kg | −0.2213 ± 0.01639 ^b | 8 days after inoculation | CCN1CCN(c2cc3c(cc2F)c(=O)c(C(=O)O)cn3C2CC2)CC1 [Enrofloxacin, enrofloxacin] |  |  | concentration at 3 day of withdrawal period [1, 5]: 990.5 ± 3.54 ng/g; concentration at 3 day of withdrawal period [1, 6]: 1075 ± 1.41 ng/g; concentration at 3 day of withdrawal period [1, 7]: 1060 ± 2.12 ng/g
 | 20.7 ± 1.15 ng/g | 25.3 ± 6.43 ng/g | 149 ± 8.54 ng/g | 307.00 ± 10.39 µg/kg | 13.33 ± 2.52 µg/kg |  |  |  | 73.00 ± 6.24 µg/kg | 19.00 ± 1.00 µg/kg |  |  | CC1(C)S[C@@H]2[C@H](NC(=O)[C@H](N)c3ccc(O)cc3)C(=O)N2[C@H]1C(=O)O [Amoxicillin, amoxicillin] | 25 days | 50 µg/kg | Concentration in loins compared with forequarters and hindquarters ([1]; pig muscle groups, Table S1): over seven times higher; Time at which muscle amounts were close to the MRL ([1]; pig muscle, MRL 50 µg/kg): first day of the withdrawal period; Time at which blood amounts were close to the MRL ([2]; pig blood, MRL 50 µg/kg): first day of the withdrawal period
3.43 days |  |  |  | 1005.33 ± 55.47 µg/kg | 31.33 ± 3.21 µg/kg | 26 days after inoculation | −0.08784 ± 0.005403 ^a | 3.59 days | 615.00 ± 204.47 µg/kg | 24.00 ± 1.73 µg/kg | −0.08879 ± 0.007069 ^a | 25 days after inoculation | CN(C)[C@@H]1C(O)=C(C(N)=O)C(=O)[C@@]2(O)C(O)=C3C(=O)c4c(O)cccc4[C@@](C)(O)[C@H]3[C@H](O)[C@@H]12 [Oxytetracycline, oxytetracycline] | 28 days | 100 µg/kg | concentration at 4 day of withdrawal period [1, 5]: 971 ± 53.3 ng/g; concentration at 7 day of withdrawal period [1, 5]: 411 ± 27.5 ng/g; concentration at 15 day of withdrawal period [1, 5]: 99.7 ± 6.51 ng/g; concentration at 4 day of withdrawal period [1, 6]: 1010 ± 55.5 ng/g; concentration at 7 day of withdrawal period [1, 6]: 383 ± 45.9 ng/g; concentration at 15 day of withdrawal period [1, 6]: 100 ± 16 ng/g; concentration at 4 day of withdrawal period [1, 7]: 905 ± 118 ng/g; concentration at 7 day of withdrawal period [1, 7]: 383 ± 12.9 ng/g; concentration at 15 day of withdrawal period [1, 7]: 125 ± 15.7 ng/g; Share of the dose eliminated in the feces [4]: 40%; Share of the dose eliminated in urine via glomerular filtration [4]: 60%
